Test results from US9326513B2, “Fungicidal compositions” (Syngenta Participations AG, priority 2011, dated 2016).
Like-named read-outs stand apart in the source and are kept apart here.

Assays:
[1] = system: Monographella nivalis (syn. Microdochium nivale, Fusarium nivale); test: Monographella nivalis (snow mould, foot rot of cereals), PDB microtiter plate, visual after 72 hrs; assay type: cell-based; conditions: Monographella nivalis, applied alone
[2] = system: Mycosphaerella arachidis (y. Cercospora arachidicola); test: Mycosphaerella arachidis (brown leaf spot of groundnut), PDB microtiter plate, visual after 5-6 days; assay type: cell-based
Botrytis cinerea = Botrytis cinerea (gray mould), PDB microtiter plate, visual after 72 hrs; assay type: cell-based; conditions: for inhibition at 0.125 ppm: rate 0.125 ppm; for inhibition at 0.25 ppm: rate 0.25 ppm; for inhibition at 0.5 ppm: rate 0.5 ppm
[3] = system: Blumeria graminis f. sp. tritici (Erysiphe graminis f. sp. tritici); test: Blumeria graminis f. sp. tritici / wheat / leaf disc preventative (powdery mildew on wheat); assay type: in vivo; conditions: foliar, compared to untreated control leaf disks, read-out: disease control
Outline: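 Wheat leaf segments (cv. Kanzler) on agar were sprayed with formulated compound in water, inoculated with powdery mildew 1 day later, and kept at 20° C, 60% rh (24 h dark, then 12 h light/12 h dark). Percent disease control versus untreated scored 6-8 days after application; tested at 200 ppm.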

[4] = system: Puccinia recondita f. sp. tritici; test: Puccinia recondita f. sp. tritici / wheat / leaf disc preventative (brown rust); assay type: in vivo; conditions: foliar, compared to untreated control leaf disks, read-out: disease control
Text: Puccinia recondita f. sp. tritici/Wheat/Leaf Disc Preventative (Brown Rust) Wheat leaf segments cv. Kanzler were placed on agar in multiwell plates (24-well format) and sprayed with the formulated test compound diluted in water. The leaf disks were inoculated with a spore suspension of the fungus 1 day after application.

[5] = system: Puccinia recondita f. sp. tritici; test: Puccinia recondita f. sp. tritici / wheat / leaf disc curative (brown rust); assay type: in vivo; conditions: foliar, compared to untreated control leaf disks, read-out: disease control
Experimental: Puccinia recondita f. sp. tritici/Wheat/Leaf Disc Curative (Brown Rust) Wheat leaf segments cv. Kanzler are placed on agar in multiwell plates (24-well format). The leaf segments are inoculated with a spore suspension of the fungus. Plates were stored in darkness at 19° C. and 75% rh. The formulated test compound diluted in water was applied 1 day after inoculation.

Pyrenophora teres = Pyrenophora teres / barley / leaf disc preventative (net blotch); assay type: in vivo; conditions: foliar, compared to untreated control leaf disks, read-out: disease control
Text: Pyrenophora teres/Barley/Leaf Disc Preventative (Net Blotch) Barley leaf segments cv. Hasso were placed on agar in a multiwell plate (24-well format) and sprayed with the formulated test compound diluted in water. The leaf segments were inoculated with a spore suspension of the fungus 2 days after application.

Septoria tritici [6] = test: Septoria tritici (leaf blotch), PDB microtiter plate, visual after 72 hrs; assay type: cell-based; conditions: Zymoseptoria tritici, read-out: Activity (%)
Septoria tritici [7] = test: Septoria tritici on wheat, preventive treatment; assay type: in vivo; conditions: solo, wheat Riband, 1 day preventive, 18 days after application
[8] = Mycosphaerella arachidis, single compound, 0.0625 ppm, read-out: Activity (%)
[9] = Botrytis cinerea, single compound

With `Cc1cc(C2CC2)nc(Nc2ccccc2)n1` [Cyprodinil] the inhibition at 0.0015625 ppm ([1]; 0.0015625 ppm) was 0%, the inhibition at 0.003125 ppm ([1]; 0.003125 ppm) was 20% and the inhibition at 0.00078125 ppm ([2]; Mycosphaerella arachidis, single compound, 0.00078125 ppm) was 0%. It also gave an inhibition at 0.00125 ppm ([2]; Mycosphaerella arachidis, single compound, 0.00125 ppm) of 0%, an inhibition at 0.0015625 ppm ([2]; Mycosphaerella arachidis, single compound, 0.0015625 ppm) of 0% and an inhibition at 0.003125 ppm ([2]; Mycosphaerella arachidis, single compound, 0.003125 ppm) of 0%. It also gave an inhibition at 0.025 ppm ([2]; Mycosphaerella arachidis, single compound, 0.025 ppm) of 0%, an inhibition at 0.05 ppm ([2]; Mycosphaerella arachidis, single compound, 0.05 ppm) of 0% and an inhibition at 0.0625 ppm [2, 8] of 0%. The inhibition at 0.1 ppm ([2]; Mycosphaerella arachidis, single compound, 0.1 ppm) was 0% and the inhibition at 0.2 ppm ([2]; Mycosphaerella arachidis, single compound, 0.2 ppm) was 0%.
Work on `CC(Cc1ccc(C(C)(C)C)cc1)CN1C[C@@H](C)O[C@@H](C)C1` (some centres unmarked) [Fenpropimorph] yielded an inhibition at 0.0625 ppm ([1]; 0.0625 ppm) of 0%, an inhibition at 0.125 ppm ([1]; 0.125 ppm) of 0% and an inhibition at 0.25 ppm ([1]; 0.25 ppm) of 0%. For the same compound, the inhibition at 0.5 ppm ([1]; 0.5 ppm) was 0%, the inhibition at 2 ppm ([1]; 2 ppm) was 20% and the inhibition at 0.0078125 ppm ([1]; rate 0.0078125 ppm) was 0%. The inhibition at 0.015625 ppm ([1]; rate 0.015625 ppm) was 0%, the inhibition at 0.03125 ppm ([1]; rate 0.03125 ppm) was 0% and the inhibition at 0.0625 ppm ([1]; rate 0.0625 ppm) was 0%. The inhibition at 0.125 ppm ([1]; rate 0.125 ppm) was 0%, the inhibition at 0.0625 ppm (Botrytis cinerea; Botrytis cinerea, alone, rate 0.0625 ppm, read-out: Activity (%)) was 0% and the inhibition at 0.125 ppm (Botrytis cinerea; Botrytis cinerea, alone) was 0%. For the same compound, the inhibition at 0.25 ppm (Botrytis cinerea; Botrytis cinerea, alone) was 0%, the inhibition at 0.5 ppm (Botrytis cinerea; Botrytis cinerea, alone) was 70% and the inhibition at 0.125 ppm (Botrytis cinerea; [9]) was 0%. It also gave an inhibition at 0.25 ppm (Botrytis cinerea; [9]) of 0%, an inhibition at 0.5 ppm (Botrytis cinerea; [9]) of 70% and an inhibition at 0.00390625 ppm ([2]; Mycosphaerella arachidis, single compound, 0.00390625 ppm, read-out: Activity (%)) of 20%. For the same compound, the inhibition at 0.0078125 ppm ([2]; Mycosphaerella arachidis, single compound, 0.0078125 ppm, read-out: Activity (%)) was 20%, the inhibition at 0.015625 ppm ([2]; Mycosphaerella arachidis, single compound, 0.015625 ppm, read-out: Activity (%)) was 50% and the inhibition at 0.03125 ppm ([2]; Mycosphaerella arachidis, single compound, 0.03125 ppm, read-out: Activity (%)) was 50%. It also gave an inhibition at 0.0625 ppm [2, 8] of 70%.
`C#Cc1cccc(COc2nc(C)c(/N=C/N(C)CC)cc2Br)c1` [Q.195] showed a pest or weed control at 200 ppm [3] of at least 50%, a pest or weed control at 200 ppm [4] of at least 50% and a pest or weed control at 200 ppm [5] of at least 50%. It also gave a pest or weed control at 200 ppm (Pyrenophora teres) of at least 50% and a melting point of 52 to 54 °C.
With `CCN(C)/C=N/c1cc(Br)c(OCc2ccnc(Cl)c2)nc1C` [Q.111] the pest or weed control at 200 ppm [3] was at least 50%, the pest or weed control at 200 ppm [4] was at least 50% and the pest or weed control at 200 ppm [5] was at least 50%. It also gave a pest or weed control at 200 ppm (Pyrenophora teres) of at least 50% and a melting point of 57 to 59 °C.
For `CCN(C)/C=N/c1cc(Br)c(OCc2cccc(C)c2)nc1C` [Q.128], the pest or weed control at 200 ppm [3] was at least 50%, the pest or weed control at 200 ppm [4] was at least 50% and the pest or weed control at 200 ppm [5] was at least 50%. For the same compound, the pest or weed control at 200 ppm (Pyrenophora teres) was at least 50% and the melting point was 60 to 62 °C.
Compound `CCN(C)/C=N/c1cc(Br)c(OCc2cccc(NC(=O)OC(C)(C)C)c2)nc1C` [Q.236] has a pest or weed control at 200 ppm [4] of at least 50%, a pest or weed control at 200 ppm [5] of at least 50% and a pest or weed control at 200 ppm (Pyrenophora teres) of at least 50%. The melting point was 40 to 42 °C.
For `CCN(C)/C=N/c1cc(Br)c(OCc2cccc(C(F)(F)F)c2)nc1C` [Q.153], the pest or weed control at 200 ppm [3] was at least 50%, the pest or weed control at 200 ppm [4] was at least 50% and the pest or weed control at 200 ppm [5] was at least 50%. It also gave a pest or weed control at 200 ppm (Pyrenophora teres) of at least 50% and a melting point of 43 to 44 °C.
With `N#Cc1c[nH]cc1-c1cccc2c1OC(F)(F)O2` [Fludioxonil] the inhibition at 0.03125 ppm (Botrytis cinerea; Botrytis cinerea, read-out: Activity (%), alone, rate 0.03125 ppm) was 0%, the inhibition at 0.0625 ppm (Botrytis cinerea; Botrytis cinerea, read-out: Activity (%), alone, rate 0.0625 ppm) was 70% and the “Activity (%)” value (Botrytis cinerea; alone, rate 0.0625 ppm) was 50%. The inhibition at 0.25 ppm (Septoria tritici [6]) was 70%, the inhibition at 0.00390625 ppm ([2]; Mycosphaerella arachidis, read-out: Activity (%), single compound, 0.00390625 ppm) was 0% and the inhibition at 0.0078125 ppm ([2]; Mycosphaerella arachidis, read-out: Activity (%), single compound, 0.0078125 ppm) was 0%. The inhibition at 0.015625 ppm ([2]; Mycosphaerella arachidis, read-out: Activity (%), single compound, 0.015625 ppm) was 0%, the inhibition at 0.03125 ppm ([2]; Mycosphaerella arachidis, read-out: Activity (%), single compound, 0.03125 ppm) was 0% and the inhibition at 0.0625 ppm ([2]; Mycosphaerella arachidis, read-out: Activity (%), single compound, 0.0625 ppm) was 0%. The inhibition at 0.125 ppm ([2]; Mycosphaerella arachidis, read-out: Activity (%), single compound, 0.125 ppm) was 0%, the inhibition at 0.25 ppm ([2]; Mycosphaerella arachidis, read-out: Activity (%), single compound, 0.25 ppm) was 0% and the inhibition at 0.5 ppm ([2]; Mycosphaerella arachidis, read-out: Activity (%), single compound, 0.5 ppm) was 70%. For the same compound, the “Activity (%)” value ([2]; single compound, 0.5 ppm) was 50%.
With `OC(c1cccnc1)c1c(-c2ccc(Cl)cc2F)noc1-c1ccc(F)cc1F` (centres unmarked) [(VII), [3-(4-chloro-2-fluoro-phenyl)-5-(2,4-difluoro-phenyl)-isoxazol-4-yl]-pyridin-3-yl-methanol, reference compound] the Activity (Septoria tritici [7]; 3 g a.i./ha) was 0%, the Activity (Septoria tritici [7]; 9 g a.i./ha) was 20% and the Activity (Septoria tritici [7]; 27 g a.i./ha) was 96%.
In the case of `CCN(C)/C=N/c1cc(Br)c(OCc2ccccc2Cl)nc1C` [Q.300], the pest or weed control at 200 ppm [3] is reported as at least 50%, the pest or weed control at 200 ppm [4] is reported as at least 50% and the pest or weed control at 200 ppm [5] is reported as at least 50%. The melting point was 53 to 56 °C.
